Experimental data as given in patent US11873291B2, “Quinoline cGAS antagonist compounds” (ImmuneSensor Therapeutics, Inc., priority 2020, dated 2024).
Where two headings read alike, the source gives them in different places.

Target: T1, recombinant human cGAS (aa147-522) (Homo sapiens, UniProt Q8N884)
T1 construct: recombinant human cGAS (aa147-522); His6-SUMO (cleaved yes); made in house; host or cells: E. coli BL21/pLys
Assay: In vitro inhibition assay of cGAS activity (ATP consumption, KinaseGlo Max)
Type: biochemical
Method: Expression and Purification of Recombinant cGAS Protein: cDNA encoding full-length or amino acids […] of human cGAS was inserted into a modified pET28a vector containing an in-frame His6-SUMO tag. The E. coli strain BL21/pLys harboring the plasmid was induced with 0.5 mM IPTG at 18° C. overnight. His6-SUMO tag was removed by a SUMO protease digestion following purification of the His6-SUMO-cGAS as described previously (Sun et al, 2013, Science 339, 786).
In vitro inhibition assay of cGAS activity: A 60 μL mixture containing 20 mM Tris-Cl, pH 7.5, 5 mM MgCl2, 0.2 mg/mL BSA, 0.01 mg/mL Herring testis DNA, 6.6 μM ATP, 0.1 mM GTP, 1.5 μg/mL of recombinant human cGAS (aa147-522) and serial dilutions of a test compound in DMSO was added to a 96-well plate and incubated at 37° C. for 20 minutes. At the end of reaction, 40 μL of KinaseGlo Max (Promega) was added and chemiluminescence was measured with a luminometer. Inhibitory effect of a compound is evaluated by plotting percentage of ATP consumption against logarithm of compound concentrations. IC50 value was calculated using GraphPad Prism 8 (GraphPad Software, Inc.).
The letter codes for cGAS IC50 include: A (<2 μM); B (2-30 μM); C (>30 μM).

[1] = Table 2, read-out: cGAS Inhibition Results IC50
[2] = Table 3, read-out: cGAS Inhibition Results IC50

T1 sequence (Q8N884 147-522): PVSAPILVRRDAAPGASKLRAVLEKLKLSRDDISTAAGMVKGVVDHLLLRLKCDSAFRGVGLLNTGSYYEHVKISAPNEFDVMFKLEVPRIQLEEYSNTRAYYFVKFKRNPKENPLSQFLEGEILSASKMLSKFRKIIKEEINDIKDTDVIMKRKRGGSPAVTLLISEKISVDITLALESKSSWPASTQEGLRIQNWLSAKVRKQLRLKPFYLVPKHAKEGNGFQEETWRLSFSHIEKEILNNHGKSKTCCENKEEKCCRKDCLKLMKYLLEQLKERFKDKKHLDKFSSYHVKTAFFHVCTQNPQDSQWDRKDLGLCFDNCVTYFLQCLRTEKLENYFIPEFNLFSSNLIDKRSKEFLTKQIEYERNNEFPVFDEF

Row | IC50 [1] [µM] | IC50 [2] [µM] | Structure (SMILES)
1 | > 30 | – | Cc1cc(N2CCNC(=O)CC2)c2ccc(Cl)c(Cl)c2n1 [I-310]
2 | 2 to 30 | – | COC(=O)[C@@H]1C[C@H](O)CN1c1cc(-c2cn[nH]c2)c2ccc(Cl)c(Cl)c2n1 [I-432]
3 | > 30 | – | COCn1nccc1S(=O)(=O)NCCN(C)c1cc(-n2ccnc2)c2ccc(Cl)cc2n1 [I-229]
4 | < 2 | – | O=C(O)[C@@H]1C[C@H](O)CN1c1cc(-c2cn[nH]c2)c2ccc(Cl)c(Cl)c2n1 [I-431]
5 | < 2 | – | CS(=O)(=O)NC[C@@H]1CCCN1c1cc(-n2ccnc2)c2ccc(Cl)c(Cl)c2n1 [I-151]
6 | > 30 | – | O=C1CN(c2cc(Cl)nc3c(Cl)c(Cl)ccc23)CCN1 [I-307]
7 | 2 to 30 | – | C[C@@H](Nc1cc(-c2cn[nH]c2)nc2c(Cl)c(Cl)ccc12)C(=O)OC(C)(C)C [I-290]
8 | < 2 | – | O=C(NO)[C@@H]1CCCN1c1cc(-n2ccnc2)c2ccc(Cl)c(Cl)c2n1 [I-449]
9 | – | 2 to 30 | CN(CCNC(=O)c1cccc(C(=O)O)c1)c1cc(-n2ccnc2)c2ccc(Cl)c(Cl)c2n1 [I-620]
10 | 2 to 30 | – | NC(=O)c1cccc(-c2cc(-n3ccnc3)c3ccc(Cl)cc3n2)c1 [I-7, 3-(7-chloro-4-(1H-imidazol-1-yl)quinolin-2-yl)benzamide]
11 | < 2 | – | O=C(O)CNC(=O)C[C@@H]1CCCN1c1cc(-n2ccnc2)c2ccc(Cl)c(Cl)c2n1 [I-156, (S)-(2-(1-(7,8-dichloro-4-(1H-imidazol-1-yl)quinolin-2-yl)pyrrolidin-2-yl)acetyl)glycine]
12 | – | < 2 | CN(CCNC(=O)CO)c1cc(-n2ccnc2)c2ccc(Cl)c(Cl)c2n1 [I-613]
13 | > 30 | – | CN(CCO)c1cc(-c2cn[nH]c2)nc2c(Cl)c(Cl)ccc12 [I-297]
14 | < 2 | – | NS(=O)(=O)CCNc1cc(-c2cn[nH]c2)c2cc(Cl)cc(Cl)c2n1 [I-264]
15 | – | > 30 | CC(C)(C)c1ccc2c(-n3ccnc3)cc(N3CCC[C@H]3COCCC(=O)O)nc2c1 [I-858]
16 | > 30 | – | COC(=O)c1ccc(-c2cc(-n3ccnc3)c3ccc(Cl)cc3n2)cc1 [I-3]
17 | – | < 2 | O[C@H]([C@@H]1CCCN1c1cc(-n2ccnc2)c2ccc(Cl)c(Cl)c2n1)C(F)(F)F [I-655, (R)-1-((S)-1-(7,8-dichloro-4-(1H-imidazol-1-yl)quinolin-2-yl)pyrrolidin-2-yl)-2,2,2-trifluoroethan-1-ol]
18 | < 2 | – | O=S(=O)(O)CCNc1cc(-n2ccnc2)c2ccc(Cl)c(Cl)c2n1 [I-158]
19 | < 2 | – | CN(CCC(=O)NCCO)c1cc(-c2cn[nH]c2)c2ccc(Cl)c(Cl)c2n1 [I-194]
20 | < 2 | – | O=C(O)CCNC(=O)[C@@H]1CCCN1c1cc(-n2ccnc2)c2ccc(Cl)c(Cl)c2n1 [I-324]
21 | > 30 | – | COc1ccc(-c2cc(-n3ccnc3)c3ccc(Cl)c(Cl)c3n2)cc1C#N [I-40]
22 | 2 to 30 | – | COC(=O)C1CCN(c2cc(-n3ccnc3)c3ccc(Cl)cc3n2)CC1 [I-131]
23 | < 2 | – | O=C(CO)N[C@@H]1C[C@@H](C(=O)O)N(c2cc(-n3ccnc3)c3ccc(Cl)c(Cl)c3n2)C1 [I-346]
24 | – | 2 to 30 | CC(C)(C)OC(=O)C[C@@H]1CCCN1c1cc(-n2ccnc2)c2ccc(Cl)c(Cl)c2n1 [I-573]

Row | IC50 [1] [µM] | IC50 [2] [µM] | Structure (SMILES)
25 | < 2 | – | NC(=O)CCNc1cc(-c2cn[nH]c2)c2ccc(Cl)c(Cl)c2n1 [I-190]
26 | 2 to 30 | – | Brc1ccc2c(-n3ccnc3)cc(-c3cccs3)nc2c1 [I-380, 7-bromo-4-(1H-imidazol-1-yl)-2-(thiophen-2-yl)quinoline]
27 | – | 2 to 30 | CC(C)COC(=O)[C@@H]1[C@@H](O)CCN1c1cc(-n2ccnc2)c2ccc(Cl)c(Cl)c2n1 [I-602]
28 | 2 to 30 | – | O=C(O)C1CCN(c2cc(-n3ccnc3)c3ccc(Cl)cc3n2)CC1 [I-127]
29 | – | 2 to 30 | O=C(O)[C@H]1[C@H](O)CCN1c1cc(-n2ccnc2)c2ccc(Cl)c(Cl)c2n1 [I-498]
30 | – | < 2 | CN(CCS(=O)(=O)NCCO)c1cc(-n2ccnc2)c2ccc(Cl)c(Cl)c2n1 [I-624, 2-((7,8-dichloro-4-(1H-imidazol-1-yl)quinolin-2-yl)(methyl)amino)-N-(2-hydroxyethyl)ethane-1-sulfonamide]
31 | < 2 | – | O=C(CO)NC1(C(=O)O)CCCN(c2cc(-n3ccnc3)c3ccc(Cl)c(Cl)c3n2)C1 (centres unmarked) [I-125, 1-(7,8-dichloro-4-(1H-imidazol-1-yl)quinolin-2-yl)-3-(2-hydroxyacetamido) piperidine-3-carboxylic acid]
32 | – | 2 to 30 | COc1ccc(OCCCN(c2cc(-n3ccnc3)c3ccc(Cl)c(Cl)c3n2)C(C)C)c(C(=O)O)c1 [I-849]
33 | > 30 | – | Cc1nccn1-c1ccnc2ccccc12 [I-411]
34 | < 2 | – | O=C(O)CCNC(=O)[C@H]1CN(c2cc(-c3cn[nH]c3)c3ccc(Cl)c(Cl)c3n2)CCO1 [I-344]
35 | < 2 | – | Oc1ccc(-c2cc(-n3ccnc3)c3ccc(Cl)c(Cl)c3n2)cc1 [I-47]
36 | > 30 | – | CC(C)(C)c1ccc2c(-c3cn[nH]c3)cc(NCCS(N)(=O)=O)nc2c1 [I-268]
37 | – | < 2 | CN(CC(=O)NCCC(=O)O)c1cc(-n2ccnc2)c2ccc(Cl)c(Cl)c2n1 [I-562]
38 | – | 2 to 30 | O=C(O)[C@@H]1Cc2ccccc2N1c1cc(-n2ccnc2)c2ccc(Cl)c(Cl)c2n1 [I-476]
39 | – | < 2 | O=C(O)[C@@H]1CN(c2cc(-n3ccnc3)c3ccc(Cl)c(Cl)c3n2)CCO1 [I-521]
40 | – | 2 to 30 | CC(C)N(CCCOc1ccccc1C(=O)O)c1cc(-n2ccnc2)c2ccc(Cl)c(Cl)c2n1 [I-852]
41 | – | < 2 | O=C(O)[C@@H]1SCCN1c1cc(-n2ccnc2)c2ccc(Cl)c(Cl)c2n1 [I-486]
42 | < 2 | – | CN(CCCO[PH](=O)OCCC#N)c1cc(-c2cn[nH]c2)c2ccc(Cl)c(Cl)c2n1 (centres unmarked) [I-257]
43 | – | < 2 | C[C@H](NC(=O)CCN(C)c1cc(-n2ccnc2)c2ccc(Cl)c(Cl)c2n1)C(=O)O [I-565]
44 | – | 2 to 30 | O=C(C[C@@H]1CCCN1c1cc(-n2ccnc2)c2ccc(Cl)c(Cl)c2n1)NCCC(O)(C(F)(F)F)C(F)(F)F [I-543]
45 | > 30 | – | Clc1cc(N2CCNCC2)c2ccc(Cl)c(Cl)c2n1 [I-312]
46 | – | < 2 | O=C(C[C@@H]1CCCN1c1cc(-n2ccnc2)c2ccc(Cl)c(Cl)c2n1)NC1CCNC1=O (some centres unmarked) [I-541]
47 | 2 to 30 | – | CN(CCC(=O)NCc1ccccc1)c1cc(-c2cn[nH]c2)c2ccc(Cl)c(Cl)c2n1 [I-193, N-benzyl-3-((7,8-dichloro-4-(1H-pyrazol-4-yl)quinolin-2-yl)(methyl)amino)propenamide]
48 | – | < 2 | O=C(O)C1CC2CCC1N2c1cc(-n2ccnc2)c2ccc(Cl)c(Cl)c2n1 (centres unmarked) [I-494]

Row | IC50 [1] [µM] | IC50 [2] [µM] | Structure (SMILES)
49 | < 2 | – | O=C(O)C1CN(c2cc(-n3ccnc3)c3ccc(Cl)c(Cl)c3n2)CCN1CCO (centres unmarked) [I-81]
50 | 2 to 30 | – | Nc1cccc(-c2cc(-n3ccnc3)c3ccc(Cl)cc3n2)c1 [I-8, 3-(7-chloro-4-(1H-imidazol-1-yl)quinolin-2-yl)aniline]
51 | > 30 | – | CC(C)(C)c1cc(C(=O)O)cc(-c2cc(-n3ccnc3)c3ccc(Cl)cc3n2)c1 [I-25]
52 | > 30 | – | NS(=O)(=O)CCNc1cc(-c2cn[nH]c2)c2c(Cl)cc(Cl)cc2n1 [I-263]
53 | < 2 | – | C[C@@H](CC(=O)O)Nc1cc(-n2ccnc2)c2ccc(Cl)c(Cl)c2n1 [I-186]
54 | – | < 2 | Clc1ccc2c(-n3ccnc3)cc(N3CCC[C@H]3c3nn[nH]n3)nc2c1Cl [I-465]
55 | < 2 | – | O=C(O)C1CN(c2cc(-n3ccnc3)c3ccc(Cl)c(Cl)c3n2)CCC1O (centres unmarked) [I-332]
56 | – | > 30 | Cn1cc(-c2cc(N3CCC[C@H]3COCCC(=O)O)nc3c(Cl)c(Cl)ccc23)cn1 [I-826]
57 | – | 2 to 30 | O=C(O)CCO[C@H]([C@@H]1CCCN1c1cc(-n2ccnc2)c2ccc(Cl)c(Cl)c2n1)C(F)(F)F [I-721]
58 | > 30 | – | Brc1ccc2c(-n3ccnn3)ccnc2c1 [I-420]
59 | – | 2 to 30 | CC(C)(O)[C@@H]1CCCN1c1cc(-n2ccnc2)c2ccc(Cl)c(Cl)c2n1 [I-484]
60 | – | 2 to 30 | COC(=O)[C@@H]1[C@@H](C)CCN1c1cc(-n2ccnc2)c2ccc(Cl)c(Cl)c2n1 [I-590]
61 | – | 2 to 30 | CN(CCN1C(=O)c2ccccc2S1(=O)=O)c1cc(-n2ccnc2)c2ccc(Cl)c(Cl)c2n1 [I-621]
62 | – | < 2 | O=C(O)CCNC(=O)[C@@H]1CN(c2cc(-n3ccnc3)c3ccc(Cl)c(Cl)c3n2)CCO1 [I-555]
63 | < 2 | – | O=P(O)(O)CCNc1cc(-n2ccnc2)c2ccc(Cl)c(Cl)c2n1 [I-250]
64 | < 2 | – | NS(=O)(=O)C1CCCN(c2cc(-c3cn[nH]c3)c3ccc(Cl)c(Cl)c3n2)C1 (centres unmarked) [I-373]
65 | > 30 | – | O=c1[nH]c2cc(-c3cc(-n4ccnc4)c4ccc(Cl)cc4n3)ccc2o1 [I-36]
66 | – | < 2 | OC1CC2CCC(C1)N2c1cc(-n2ccnc2)c2ccc(Cl)c(Cl)c2n1 (centres unmarked) [I-490]
67 | 2 to 30 | – | O=C(NCCO)[C@@H]1CCCN1c1cc(-n2ccnc2)c2ccc(Cl)c(Cl)c2n1 [I-452]
68 | > 30 | – | Oc1ccc(-c2cc(-c3ccccc3)nc3cc(Cl)ccc23)cn1 [I-73]
69 | < 2 | – | O=C(O)CNC(=O)[C@@H]1CN(c2cc(-c3cn[nH]c3)c3ccc(Cl)c(Cl)c3n2)CCO1 [I-341]
70 | – | < 2 | NC(=O)C[C@@H]1CCCN1c1cc(-n2ccnc2)c2ccc(Cl)c(Cl)c2n1 [I-603]
71 | > 30 | – | CCOC(=O)c1ccccc1-c1cc(-n2ccnc2)c2ccc(Cl)cc2n1 [I-12]
